Laboratory results reported in publication PMC7513592 (RSC Medicinal Chemistry, 2020).

How the values were obtained:
hTRPV6 = biological target: T1, hTRPV6 (Homo sapiens, UniProt Q9H1D0); test: Confocal microscopy of Cd2+ uptake in HEK-hTRPV6 cells (Leadmium Green); assay type: cell-based; parameters: expressed in transfected cells; details: 10 μM, 30 min, versus vehicle
T1 sequence (Q9H1D0 1-765): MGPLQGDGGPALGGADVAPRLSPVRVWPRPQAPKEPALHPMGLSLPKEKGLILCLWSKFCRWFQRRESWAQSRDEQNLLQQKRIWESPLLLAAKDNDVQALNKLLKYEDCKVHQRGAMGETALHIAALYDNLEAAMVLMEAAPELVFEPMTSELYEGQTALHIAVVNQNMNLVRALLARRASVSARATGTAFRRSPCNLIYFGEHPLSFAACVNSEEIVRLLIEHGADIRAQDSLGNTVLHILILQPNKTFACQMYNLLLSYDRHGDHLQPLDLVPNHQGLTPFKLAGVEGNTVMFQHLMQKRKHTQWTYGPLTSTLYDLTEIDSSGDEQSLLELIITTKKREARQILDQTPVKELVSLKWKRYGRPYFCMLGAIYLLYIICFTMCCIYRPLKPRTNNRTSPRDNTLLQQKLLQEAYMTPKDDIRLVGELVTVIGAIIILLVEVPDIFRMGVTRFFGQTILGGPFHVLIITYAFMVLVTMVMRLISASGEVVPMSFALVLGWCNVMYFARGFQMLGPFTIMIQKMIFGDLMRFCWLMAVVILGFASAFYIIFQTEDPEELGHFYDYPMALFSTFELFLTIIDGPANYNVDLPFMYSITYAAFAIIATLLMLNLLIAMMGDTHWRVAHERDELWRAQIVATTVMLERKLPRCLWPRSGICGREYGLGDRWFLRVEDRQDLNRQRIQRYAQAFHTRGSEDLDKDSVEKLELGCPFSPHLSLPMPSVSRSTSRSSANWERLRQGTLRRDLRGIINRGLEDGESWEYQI
Description: . The cells were also stained with the wheat germ agglutinin Alexa Fluor™ 594 conjugate to mark the cytoplasmic membrane.[35],[36] […]. page 64:
HEK-hTRPV6 were trypsinized and plated at 1 x 10^4 cells/well onto poly-D-lysine coated Nunc Lab-Tek II 8-well chambered coverglass plates (Faust Laborbedarf AG, Schaffhausen) using 100 μl DMEM supplemented with 10% FBS and 2 mM glutamine without antibiotics or phenol-red. After 24 h of incubation at 37 °C, the medium was replaced by 200 µL/well of a mixture of Leadmiun Green (final concentration: 5 ng/µL), Hoechst 33258 (final concentration: 1 ng/µL) and wheat germ agglutinin Alexa Fluor® 594 conjugate (final concentration: 5 ng/µL) in NCF buffer. The chamber was covered with aluminum foil and was incubated at 37 °C for 30 min. Then, the buffer was removed, cells were washed twice with fresh NCF buffer (2 x 200 µL) and another 190 µL of NCF containing 10X of 39 was added. For control cells, 200 µL of NCF was added after washing. The chamber was mounted in the confocal microscope and 10 µL of CdCl2 (final concentration: 50 μM) was added right after the start of imaging (total duration: 30 min). […]
Fig S3. […] The total fluorescence intensity for each channel was plotted in graphs (B) and (D), respectively for DMSO and compound 39. […]

[1] = test system: store-operated calcium channels; test: SOCE FLIPR assay in MDA-MB-231 cells; assay type: cell-based, human; details: 5 μM
Description: Fig. 9 A. Recording of store-operated Ca^2+ entry (SOCE) in MDA-MB-231 cells pretreated for 20 min with either DMSO or SOCE inhibitor GSK-7975A, or 1vs.39. Ca^2+ store-depletion was achieved by 10 min treatment of cells with 1 μM thapsigargin (Tg) in a nominally Ca^2+ free buffer. […] The P-value of the 1vs.39 pretreated cells is indicated above the respective bar as *** for p ≤ 0.001 or non-significant (n.s.) for p > 0.05.
MDA-MB-231 cells were trypsinized and plated at 6 x 10^4 cells/well onto 96-well black plates with clear bottom using 100 μl phenol -red free RPMI medium supplemented with 10% FBS. SOCE activity was measured 16 h later using the previousl y described FLIPR assay.11 After 16 h the medium was replaced with 50 μL of NCF loading buffer and the cells were incubated at 37 °C for 40 min, following which 50 µL of 2X drugs were manually applied (GSK-7975A, 1 or 39) and the cells were incubated for another 20 min.
Stable Ca2+-free baselines were established for 50 seconds before 50 μL of a 3X thapsigargin (Tg) was robotically administered to the cells. Cells were incubated at 37 °C and fluorescence was monitored in the presence of Tg for an additional 10 minutes before administration of 50 μL of 4X CaCl 2. The activity of SOCE was measured by calculating the area under t he curve of the Ca2+ entry traces.

HEK293 wt cells = test: Cadmium toxicity XTT assay, HEK293 wt; assay type: cell-based, human; details: 10 μM or 1 μM, 24 h

Compound: O=c1ccc(CN2CCN([C@H]3CC[C@@](O)(c4cccc(C(F)(F)F)c4)CC3)CC2)c[nH]1 [compound 39]
- Leadmium Green fluorescence after Cd2+ (50 μM) (hTRPV6): significantly less pronounced
- activity on store-operated calcium channels [1]: no detectable activity
- effect on Cd2+ sensitivity (HEK293 wt cells): no effect
